Assay results taken from patent US8946154B2 (BCN Peptides, S.A., priority 2009, dated 2015).
Numbered stars: 1 amine (or outer) side, 2 acyl side, 3 side chain; on linkers, the order of the positions; unused ones are H or OH. Bridge positions count the residues as written; N and C are the ends. Square brackets hold non-standard residues; d marks the D form. Side chains are listed from the residue outwards. Peptide text beside a SMILES is read from it. * marks the point of attachment. Ethylenediamine = C(CN[*:2])N[*:1]; Hyp = O=C(O)[C@@H]1C[C@@H](O)CN1; Phg = N[C@H](C(=O)O)c1ccccc1; CO = O=C([*:1])[*:2]; Bn = c1ccc(C*)cc1

What was measured:
[1] = Stability in 90% human serum
Method: The new compounds were incubated with 90% human serum at 37° C. Aliquots were extracted at different incubation times. Acetonitrile was added to precipitate the proteins from the serum, it was centrifuged and the supernatant was filtered and injected in the RP-HPLC (Grad: 20-80% B in 30 min, B=0.07% TFA in acetonitrile). The disappearance of the initial product was analyzed using the area corresponding to the initial product and the half-life time was calculated.

sstr1 receptor = sstr1 receptor (Homo sapiens, UniProt P30872); conditions: literature, background; cited from earlier work
sstr2 receptor = sstr2 receptor (Homo sapiens, UniProt P30874); conditions: literature, background; cited from earlier work
sstr3 receptor = sstr3 receptor (Homo sapiens, UniProt P32745); conditions: literature, background; cited from earlier work
sstr4 receptor = sstr4 receptor (Homo sapiens, UniProt P31391); conditions: literature, background; cited from earlier work
Chain of sstr4 receptor (P31391 whole entry): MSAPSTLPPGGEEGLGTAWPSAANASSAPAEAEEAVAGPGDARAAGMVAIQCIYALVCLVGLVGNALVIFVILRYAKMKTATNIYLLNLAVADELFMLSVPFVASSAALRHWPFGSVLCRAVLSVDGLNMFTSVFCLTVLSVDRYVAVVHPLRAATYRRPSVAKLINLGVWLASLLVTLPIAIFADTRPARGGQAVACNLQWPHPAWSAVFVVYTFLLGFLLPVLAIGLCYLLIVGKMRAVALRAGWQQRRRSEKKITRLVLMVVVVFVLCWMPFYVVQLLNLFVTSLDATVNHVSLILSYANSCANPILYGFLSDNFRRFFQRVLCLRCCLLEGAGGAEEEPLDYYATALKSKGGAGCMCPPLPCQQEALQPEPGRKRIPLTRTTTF

Chain of sstr1 receptor (P30872 whole entry): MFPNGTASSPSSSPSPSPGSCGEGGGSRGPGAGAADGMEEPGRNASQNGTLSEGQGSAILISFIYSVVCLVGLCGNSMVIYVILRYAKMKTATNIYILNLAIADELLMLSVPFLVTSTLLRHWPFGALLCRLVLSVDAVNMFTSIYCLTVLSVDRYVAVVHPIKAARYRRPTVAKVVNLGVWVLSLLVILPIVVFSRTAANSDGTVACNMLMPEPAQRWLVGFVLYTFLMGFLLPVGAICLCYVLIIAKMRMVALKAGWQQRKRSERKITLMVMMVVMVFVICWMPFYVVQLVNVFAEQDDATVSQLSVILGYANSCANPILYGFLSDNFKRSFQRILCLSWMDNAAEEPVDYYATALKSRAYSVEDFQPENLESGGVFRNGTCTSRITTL
Chain of sstr3 receptor (P32745 whole entry): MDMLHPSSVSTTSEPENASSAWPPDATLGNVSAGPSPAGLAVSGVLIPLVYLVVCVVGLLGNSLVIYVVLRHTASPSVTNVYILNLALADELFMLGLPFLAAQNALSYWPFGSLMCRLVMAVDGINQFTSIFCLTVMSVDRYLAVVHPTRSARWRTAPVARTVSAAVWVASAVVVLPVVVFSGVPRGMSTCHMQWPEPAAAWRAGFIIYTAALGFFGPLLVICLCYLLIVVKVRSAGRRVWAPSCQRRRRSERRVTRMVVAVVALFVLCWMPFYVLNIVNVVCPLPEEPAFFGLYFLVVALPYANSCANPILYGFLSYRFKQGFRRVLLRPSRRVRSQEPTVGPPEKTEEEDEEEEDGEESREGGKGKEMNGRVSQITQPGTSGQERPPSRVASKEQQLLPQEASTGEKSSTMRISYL
Chain of sstr2 receptor (P30874 whole entry): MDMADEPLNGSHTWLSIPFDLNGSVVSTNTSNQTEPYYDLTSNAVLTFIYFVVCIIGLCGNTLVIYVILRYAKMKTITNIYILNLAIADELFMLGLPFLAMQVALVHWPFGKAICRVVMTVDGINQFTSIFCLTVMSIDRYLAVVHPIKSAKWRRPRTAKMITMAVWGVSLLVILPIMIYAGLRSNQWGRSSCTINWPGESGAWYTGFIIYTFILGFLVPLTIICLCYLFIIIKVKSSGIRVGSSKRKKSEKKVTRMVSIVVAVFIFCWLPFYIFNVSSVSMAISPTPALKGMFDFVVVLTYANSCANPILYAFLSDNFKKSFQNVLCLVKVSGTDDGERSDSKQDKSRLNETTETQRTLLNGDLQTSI

SMILES | half-life [1] [h] | affinity for the sstr1 receptor (sstr1 receptor) | affinity for the sstr2 receptor (sstr2 receptor) | affinity for the sstr3 receptor (sstr3 receptor) | affinity for the sstr4 receptor (sstr4 receptor)
CCCCCCCCCCCCCCCC(=O)NCCCC[C@@H]1NC(=O)[C@@H](NC(=O)CNC(=O)[C@H](C)N)CSSC[C@@H](C(=O)O)NC(=O)[C@H](CO)NC(=O)[C@H]([C@@H](C)O)NC(=O)[C@H](Cc2ccccc2)NC(=O)[C@H]([C@@H](C)O)NC(=O)[C@H](CCCCN)NC(=O)[C@H](Cc2c[nH]c3ccccc23)NC(=O)[C@H](Cc2ccccc2)NC(=O)[C@H](Cc2ccccc2)NC(=O)[C@H](CC(N)=O)NC1=O [Compound 21] | 41.7 |  |  |  | 
Cc1cc(C)c(C[C@@H]2NC(=O)[C@H](CC(N)=O)NC(=O)[C@H](CCCCN)NC(=O)[C@@H](NC(=O)CNC(=O)[C@H](C)N)CSSC[C@@H](C(=O)O)NC(=O)[C@H](CO)NC(=O)[C@H]([C@@H](C)O)NC(=O)[C@H](Cc3ccccc3)NC(=O)[C@H]([C@@H](C)O)NC(=O)[C@H](CCCCN)NC(=O)[C@@H](Cc3c[nH]c4ccccc34)NC(=O)[C@H](Cc3ccccc3)NC2=O)c(C)c1 [Compound 24] | 26.2 |  |  |  | 
Cc1cc(C)c(C[C@@H]2NC(=O)[C@H](Cc3ccccc3)NC(=O)[C@H](CC(N)=O)NC(=O)[C@H](CCCCN)NC(=O)[C@@H](NC(=O)CNC(=O)[C@H](C)N)CSSC[C@@H](C(=O)O)NC(=O)[C@H](CO)NC(=O)[C@H]([C@@H](C)O)NC(=O)[C@H](Cc3ccccc3)NC(=O)[C@H]([C@@H](C)O)NC(=O)[C@H](CCCCN)NC(=O)[C@@H](Cc3c[nH]c4ccccc34)NC2=O)c(C)c1 [Compound 25] | 24.6 |  |  |  | 
Cc1cc(C)c(C[C@@H]2NC(=O)[C@H]([C@@H](C)O)NC(=O)[C@H](CCCCN)NC(=O)[C@@H](Cc3c[nH]c4ccccc34)NC(=O)[C@H](Cc3ccccc3)NC(=O)[C@H](Cc3ccccc3)NC(=O)[C@H](CC(N)=O)NC(=O)[C@H](CCCCN)NC(=O)[C@@H](NC(=O)CNC(=O)[C@H](C)N)CSSC[C@@H](C(=O)O)NC(=O)[C@H](CO)NC(=O)[C@H]([C@@H](C)O)NC2=O)c(C)c1 [Compound 26] | 41 |  |  |  | 
Cc1cc(C)c(C[C@@H]2NC(=O)[C@H](CC(N)=O)NC(=O)[C@H](CCCCN)NC(=O)[C@@H](NC(=O)CNC(=O)[C@H](C)N)CSSC[C@@H](C(=O)O)NC(=O)[C@H](CO)NC(=O)[C@H]([C@@H](C)O)NC(=O)[C@H](Cc3ccccc3)NC(=O)[C@H]([C@@H](C)O)NC(=O)[C@H](CCCCN)NC(=O)[C@H](Cc3c[nH]c4ccccc34)NC(=O)[C@H](Cc3c(C)cc(C)cc3C)NC2=O)c(C)c1 [Compound 27] | 43.9 |  |  |  | 
Cc1cc(C)c(C[C@@H]2NC(=O)[C@H](CC(N)=O)NC(=O)[C@H](CCCCN)NC(=O)[C@@H](NC(=O)CNC(=O)[C@H](C)N)CSSC[C@@H](C(=O)O)NC(=O)[C@H](CO)NC(=O)[C@H]([C@@H](C)O)NC(=O)[C@H](Cc3c(C)cc(C)cc3C)NC(=O)[C@H]([C@@H](C)O)NC(=O)[C@H](CCCCN)NC(=O)[C@H](Cc3c[nH]c4ccccc34)NC(=O)[C@H](Cc3c(C)cc(C)cc3C)NC2=O)c(C)c1 [Compound 30] | 93.3 |  |  |  | 
CC(C)[C@@H]1NC(=O)[C@H](CCCCN)NC(=O)[C@@H](Cc2c[nH]c3ccccc23)NC(=O)[C@H](Cc2ccc(O)cc2)NC(=O)[C@@H](NC(=O)[C@H](N)Cc2ccc3ccccc3c2)CSSC[C@@H](C(=O)N[C@H](C(N)=O)[C@@H](C)O)NC1=O [lanreotide] |  | do not bind | high affinity | moderate-low affinity | do not bind
C[C@@H](O)[C@@H]1NC(=O)[C@H](CCCCN)NC(=O)[C@@H](Cc2c[nH]c3ccccc23)NC(=O)[C@H](Cc2ccccc2)NC(=O)[C@@H](NC(=O)[C@H](N)Cc2ccccc2)CSSC[C@@H](C(=O)N[C@H](CO)[C@@H](C)O)NC1=O [octreotide] |  | do not bind | high affinity | moderate-low affinity | do not bind
NCCCC[C@@H]1NC(=O)[C@@H](Cc2c[nH]c3ccccc23)NC(=O)[C@H](c2ccccc2)NC(=O)[C@@H]2C[C@@H](OC(=O)NCCN)CN2C(=O)[C@H](Cc2ccccc2)NC(=O)[C@H](Cc2ccc(OCc3ccccc3)cc2)NC1=O [pasireotide] (cyclo([Hyp]([CO-Ethylenediamine])[Phg][dW]KY(Bn)F)) |  |  | an order of magnitude lower |  | lost
CC(C)[C@@H]1NC(=O)[C@H](CCCCN)NC(=O)[C@@H](Cc2c[nH]c3ccccc23)NC(=O)[C@H](Cc2ccc(O)cc2)NC(=O)[C@@H](NC(=O)[C@H](N)Cc2ccccc2)CSSC[C@@H](C(=O)N[C@@H](Cc2c[nH]c3ccccc23)C(N)=O)NC1=O [vapreotide] (H-[dF]CY[dW]KVCW-NH2; disulfide 2-7) |  | do not bind | high affinity | moderate-low affinity | do not bind
